Here are results for 1 substance from US8835617B2, “Polynucleotides encoding a human TRIM-Cyp fusion polypeptide, compositions thereof, and methods of using same” (priority 2008, dated 2014).

For series [1], the system named is primary human CD4+ T cells. The series is described as follows: Proliferation, IL-2 production and surface markers of transduced primary CD4+ T cells. The format is cell-based. The source says: The functions of endogenous CypA and T5 in hCD4^+ T cells remain largely uncharacterized. […] This complex inhibits T cell function by binding to the serine/threonine phosphatase calcineurin and blocking downstream signaling events (Handschumacher et al., 1984; Liu et al., 1991). Functionally, CypA is a peptidyl-prolyl isomerase (PPiase) which catalyses the rate-limiting cis-trans interconversion of peptide bonds N-terminal to proline, an enzymatic activity not required for immunosuppression via CsA (Fischer et al., 1984; Liu et al., 1991; Schmid, 1995). The peptidyl-prolyl isomerases are represented by three structurally distinct families: cyclophilins, FKBPs, and parvulins. Given their astounding evolutionary persistence, from some archeabacteria to all mammals, cyclophilins are not well understood (Colgan et al., 2000; Gothel and Marahiel, 1999).
Activated, scAPLS-transduced primary human CD4^+ T cells were maintained in culture for 6 days. 1×10^5 cells were transferred in triplicate into 96-well flat-bottom microplates (Falcon) and labeled for 18 h with […] of ^[3H]thymidine (GE-Amersham). The DNA-incorporated radioactivity was measured by liquid scintillation counting. Data were expressed as mean corrected counts per minute (ccpm) of […] cultures.
IL-2 producing capacity of hT5Cyp-expressing primary human T cells was assessed after stimulation for 6 h with 100 nM PMA and 1 μg/ml Ionomycin (Sigma-Aldrich). Brefeldin A (Sigma-Aldrich) was added at 10 μg/ml during the last 4 h of stimulation.
The following antibodies were used for cell surface stains of primary CD4^+ T cells: α-CD4 (RPA-T4), α-CXCR4 (12G5), and α-MHC I (HLA A, B, C) (G46-2.6) (all from BD-Pharmingen).

The test system of series [2] is HIV-1. The conditions noted are these: quantitative PCR, Jurkat. The procedure:
(§1) Since the objective was to engineer a fully human HIV-1 restriction factor, hCypA was the fused at 10 different positions along the length of hT5α (FIG. 44A).
Total cellular DNA was extracted from 2×10^6 Jurkat T cells using the DNeasy Blood and Tissue kit (Qiagen). qPCR was performed with the Applied Biosystems 7900HT system, using 250 ng total DNA and Taqman Gene Expression master mix (Applied Biosystems). Each experimental condition was performed in triplicate and data analyzed using the SDS software, version 2.2.2 (Applied Biosystems).

The next series has as its system HIV-1NL4-3. The experiment in a line: hCD4+-Rag2-/-γc-/- mice infected with HIV-1 four to five days after adoptive transfer. It counts as in vivo. An excerpt:
Age-matched, 6-10 week-old Rag2^−/−γc^−/− mice were conditioned with clodronate and sublethal irradiation (van Rijn et al., 2003), and injected intraperitoneally with 2.5×10^6 transduced CD4^+ T cells (FIG. 68A,B).
Rag2^−/−γc^−/− mice on a BALB/c background (provided by M. Ito; Central Institute for Experimental Animals, Kawasaki, Japan) were bred and maintained under specific pathogen-free conditions in accordance with the guidelines of the animal facility at the Institute for Research in Biomedicine. CL2 MBP (clodronate) was from Roche Diagnostics (Mannheim, Germany). Preparation of liposomes containing CL2 MBP was done as described previously (Van Rooijen and Sanders, 1994). 6-10 week-old mice received 100 ul of clodronate liposomes intraperitoneally (i.p.) 24 hours prior to irradiation using a single sublethal dose of 4.0 Gray (Gy) from a Cesium 137 source (Biobeam 8000, STS GmbH, Braunschweig, Germany) at 3.75 Gy/min. […] CD4^+ T cell engraftment and maintenance in mice was measured by flow cytometry. To obtain peripheral blood cells and plasma, mice were bled from the retro-orbital venous sinus under anesthesia and red blood cells were lysed. When sacrificed, single cell suspensions from organs were prepared. For FACS analysis monoclonal antibodies against the following antigens were used: CD3 (UCHT1), CD4 (13B8.2), CD8 (B9.11), p24 (clone KC57) (all Immunotech/Beckman Coulter, Marseille, France), CD45 (HI30) (Caltag, Burlingame, Calif.). Intracellular staining for p24 was performed on single cell suspensions from mesenteric lymph nodes and thymus following staining with anti-CD3 antibody. Cells were washed, permeabilized, and fixed by treatment with BD Cytofix/Cytoperm (BD Pharmingen) and stained with anti-p24 antibody in BD Permwash solution (BD Pharmingen) following the manufacturer's instructions. Plasma HIV RNA concentrations were determined by Cobas Amplicor RT-PCR assay (Roche Diagnostics, Basel, Switzerland). Immunohistochemical stainings were performed as previously described (Baenziger et al., 2006). To assess nonspecific binding, tissue from untransplanted and uninfected transplanted mice was stained as controls.
Rag2^−/−γc^−/− mice on a BALB/c background (provided by M. Ito; Central Institute for Experimental Animals, Kawasaki, Japan) were bred and maintained under specific pathogen-free conditions in accordance with the guidelines of the animal facility at the Institute for Research in Biomedicine (Bellinzona) and the Swiss Federal Veterinary Office (Bern). Mouse experiments were reviewed and approved by the Veterinary Commission of the State of Ticino (Bellinzona, Switzerland). CL2 MBP (clodronate) was from Roche Diagnostics (Mannheim, Germany). Preparation of liposomes containing CL2 MBP was done as described previously (68). 6-10 week-old mice received 100 ul of clodronate liposomes intraperitoneally (i.p.) 24 hours prior to irradiation using a single sublethal dose of 4.0 Gray (Gy) from a Cesium 137 source (Biobeam 8000, STS GmbH, Braunschweig, Germany) at 3.75 Gy/min.

Series [3] relates to HIV-1. The conditions noted are these: U937, CEM-SS, SUP-T1, H9, HUH-7, CRFK, 293T.
Excerpt: as §1

Values joined by “and” are separate entries in the source; they are usually repeats but may differ in a detail not shown here. Identical values can stand only once.

For the substance “hT5Cyp: human TRIM5α fused at serine 322 to human cyclophilin A, SEQ ID NO:12”, the IL-2 production result in series [1] (PMA and ionomycin) was “produced comparable amounts of IL-2”. Further, the proliferation entry in series [1] (thymidine incorporation vs untransduced) was “proliferated at the same rate as untransduced cells”. In addition, the cell-surface marker expression entry in series [1] (vs untransduced) is “expressed the same level of cell-surface CD4, CXCR4, and MHC I”. For the same substance, the “accumulation of viral cDNA” value in the series with HIV-1 [2] is “blocked the accumulation of viral cDNA”. Besides, the “reduction in mean viral load vs hT5CypH126Q” value in the series on HIV-1NL4-3 (Example 4, n=5 and n=4) was 22 fold. In the series on HIV-1NL4-3 (four weeks post-infection), the “mean peripheral blood CD45^+ cells” value is 6.7% and the “percentage CD45^+ cells higher than hT5CypH126Q” value was determined as 15 fold. Further, in the series on HIV-1NL4-3 (individual mice, week 2, listed as wt), the Viral load was 103208 copies RNA/ml and 46007 copies RNA/ml and 43551 copies RNA/ml and 251320 copies RNA/ml and 66416 copies RNA/ml and 358800 copies RNA/ml and 566835 copies RNA/ml and 3811676 copies RNA/ml and 492800 copies RNA/ml and 27826 copies RNA/ml. In the series with HIV-1NL4-3 (individual mice, listed as wt), the “Peripheral Blood (2 wks. postinfection) CD4” value was 1 percentage of total nucleated cells and 0.44 percentage of total nucleated cells and 0.33 percentage of total nucleated cells and 1.56 percentage of total nucleated cells and 2.7 percentage of total nucleated cells and 7.7 percentage of total nucleated cells and 15.1 percentage of total nucleated cells and 28.3 percentage of total nucleated cells and 1.89 percentage of total nucleated cells and 1.1 percentage of total nucleated cells; the “Peripheral Blood (2 wks. postinfection) CD45” value was 1.08 percentage of nucleated cells and 0.47 percentage of nucleated cells and 0.24 percentage of nucleated cells and 1.64 percentage of nucleated cells and 2.75 percentage of nucleated cells and 7.86 percentage of nucleated cells and 15.6 percentage of nucleated cells and 28.9 percentage of nucleated cells and 2.12 percentage of nucleated cells and 1.16 percentage of nucleated cells; the “Viral load (Corrected for CD4 count)” value is 101231 and 104916 and 192227 and 159325 and 24321 and 47206 and 37382 and 134446 and 260305 and 25410. In the series on HIV-1NL4-3 (two weeks post-infection), the “mean peripheral blood CD4^+ cells” value came to 6% and the “percentage CD4^+ cells higher than hT5CypH126Q” value came to 34 fold. Also, the “HIV-1 restriction in further cell lines” value with HIV-1 [3] was “restricted HIV-1”.
